# In PMC3247180, “Polyamidoamine (PAMAM) dendrimer conjugate specifically activates the A3 adenosine receptor to improve post-ischemic/reperfusion function in isolated mouse hearts” (BMC Pharmacology, 2011):
# “Also recorded” adds a separate entry of the source.
# What was measured:
# mA3AR [1] = target: T1, mA3AR (Mus musculus, UniProt Q61618); assay: Radioligand ([125I]I-AB-MECA) competition binding, mA3AR
# T1 construct: expressed in transfected cells; host or cells: HEK293
# T1 sequence (Q61618 1-319): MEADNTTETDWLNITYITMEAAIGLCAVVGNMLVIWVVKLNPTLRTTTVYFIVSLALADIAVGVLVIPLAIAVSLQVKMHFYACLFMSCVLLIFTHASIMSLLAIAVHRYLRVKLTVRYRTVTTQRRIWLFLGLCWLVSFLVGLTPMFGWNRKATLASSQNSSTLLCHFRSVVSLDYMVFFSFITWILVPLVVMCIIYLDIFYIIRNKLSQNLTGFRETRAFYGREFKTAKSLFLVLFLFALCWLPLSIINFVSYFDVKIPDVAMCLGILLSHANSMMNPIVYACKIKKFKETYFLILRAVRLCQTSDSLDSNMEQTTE
# Method: (§1) The competition assays were performed as previously published. Briefly, to prepare the membranes, HEK293 cells stably expressing recombinant mARs were harvested and homogenized in 10 mM Na^+-HEPES buffer (pH 7.4) with 10 mM EDTA and 0.1 mM benzamidine. The cell lysates were centrifuged (35,000 × g for 25 min; 4°C), and the pellets were resuspended in 10 mM Na^+-HEPES buffer (pH 7.4) with 1 mM EDTA and 0.1 mM benzamidine. The suspensions were homogenized and centrifuged again (35,000 × g for 25 min; 4°C). The resultant pellets were re-suspended in buffer containing 10% sucrose and stored at -80°C until use. For the radioligand binding assays, 50 μg cell membranes (100 μL) were incubated in 10 mM Na^+-HEPES buffer (pH 7.4) with 5 mM MgCl2, 5 U/mL ADA, and [^125I]I-AB-MECA as radioligand. The competing ligands of interest were added at various concentration ranges. The IC50 values were calculated using nonlinear regression analysis by fitting the data to the following equation: binding=nonspecific binding+total binding-nonspecific binding∕1+10^x-logIC50 Inhibition constant (Ki) values were calculated using the Cheng-Prusoff equation [36]. The concentration of MRS5246 reflected the concentration of the dendrimeric complex, not the individual ligand moieties. Therefore, all binding Ki values of this dendrimer are to be considered as Kiapp values.
# mA1AR [2] = target: T2, mA1AR (Mus musculus, UniProt Q60612); assay: Radioligand ([125I]I-AB-MECA) competition binding, mA1AR; conditions: recombinant mAR on HEK293 cell membranes, Kiapp for the dendrimer conjugate, read-out: mA1AR, Ki or Kiapp
# T2 construct: expressed in transfected cells; host or cells: HEK293
# T2 sequence (Q60612 1-326): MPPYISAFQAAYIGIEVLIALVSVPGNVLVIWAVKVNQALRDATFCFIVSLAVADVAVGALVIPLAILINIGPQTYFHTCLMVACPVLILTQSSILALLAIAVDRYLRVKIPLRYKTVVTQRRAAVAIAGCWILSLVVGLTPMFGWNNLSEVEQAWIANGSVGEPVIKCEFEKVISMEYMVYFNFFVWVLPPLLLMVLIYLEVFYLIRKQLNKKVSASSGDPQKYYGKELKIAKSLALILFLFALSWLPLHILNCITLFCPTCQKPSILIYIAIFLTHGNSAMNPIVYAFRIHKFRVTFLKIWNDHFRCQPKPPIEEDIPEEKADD
# Method: as §1
# mA3AR [3] = target: T1, mA3AR; assay: cAMP functional assay (inhibition of forskolin-stimulated cAMP production), mA3AR in HEK293 cells; assay type: cell-based
# Method: (§2) The assays of cAMP (3',5'-cyclic adenosine monophosphate) were performed utilizing a modified protocol published by Nordstedt and colleagues, whereby cAMP content was determined by displacement of [^3H]cAMP binding to regulatory subunits of protein kinase A in bovine adrenal extracts. HEK293 cells heterologously expressing the mA3AR were prepared by plating 2.5 × 10^5 cells per well in 24-well plates and cultured overnight in complete media (DMEM with 10% fetal bovine serum/PenStrep/0.4 mg/mL G418) at 37°C. The cells were washed with DMEM/25 mM HEPES (pH 7.4) followed by incubation in DMEM/25 mM HEPES containing 20 μM Ro 20-1274 (phosphodiesterase inhibitor), 1 U/mL ADA and a combination of two selective A2BAR antagonists (300 nM CVT-6883 and 300 nM PSB603) at 37°C for 15 min. Forskolin (20 μM) to induce cAMP production and the test compounds of interest were then simultaneously added. A concentration range of ligands or dendrimer conjugates was tested in triplicate to inhibit cAMP production via activation of A1 or A3 ARs. After incubation at 37°C for 15 min, the media was aspirated, and the cells were lysed with 200 μL ice cold 0.1 M HCl on a shaker at 4°C for 30 min. The lysates were collected and cAMP levels in the acid extract were determined by competitive binding assays as follows. Each lysate sample and cAMP standard were diluted in 0.1 M HCl and subsequently transferred to polypropylene tubes (100 μL). [^3H]cAMP (12,000 cpm/100 μL water/tube) and protein extract from bovine adrenal tissue were then added (240 μg adrenal protein/tube at a concentration of 0.6 μg/μL, in the binding protein buffer: 100 mM Tris-HCl, 250 mM NaCl, 10 mM EDTA, 0.1% 2-mercaptoethanol, pH 8.0), with the extract isolated from bovine adrenal glands as described by Nordstedt, et al. to provide the cAMP binding substrate. The samples were incubated at 4°C for 2.5 hours and harvested through GF/C glass microfiber filters using a cell harvester (Brandel, Gaithersburg, MD) and counted in scintillation cocktail. […]
# mA1AR [4] = target: T2, mA1AR; assay: cAMP functional assay (inhibition of forskolin-stimulated cAMP production), mA1AR in HEK293 cells; assay type: cell-based
# Method: as §2, with “After incubation at 37°C for 15 min, the media was aspirated, and the cells were lysed with 200 μL ice cold 0.1 M HCl on a shaker at 4°C for 30 min.” left out, “Each lysate sample and cAMP standard were diluted in 0.1 M HCl and subsequently transferred to polypropylene tubes (100 μL). [^3H]cAMP (12,000 cpm/100 μL water/tube) and protein extract from bovine adrenal tissue were then added (240 μg adrenal protein/tube at a concentration of 0.6 μg/μL, in the binding protein buffer: 100 mM Tris-HCl, 250 mM NaCl, 10 mM EDTA, 0.1% 2-mercaptoethanol, pH 8.0), with the extract isolated from bovine adrenal glands as described by Nordstedt, et al. to provide the cAMP binding substrate.” left out
# isolated mouse hearts = assay: Langendorff-perfused isolated mouse heart model of I/R (wild-type)
# Method: MRS5246 and MRS5233 were tested for effects on functional improvement in isolated mouse hearts subjected to global ischemia and reperfusion. The agonists were infused into the coronary circulation of the hearts for 10 min immediately before 20 min of global ischemia. The functional recovery parameters (left ventricular developed pressure [LVDP], rate of contraction [dP/dtmax], rate of relaxation [dP/dtmin], and coronary flow [CF; mL/min/g]) of the hearts were assessed throughout reperfusion and after 45 min of reperfusion and compared to those of control hearts.
# Isolated mouse heart experiments were performed as described previously. In brief, hearts were isolated from C57Bl/6J male mice and cannulated via the aorta and perfused in a retrograde fashion by Krebs-Henseleit buffer. Pressure measurements were obtained via a fluid-filled balloon inserted into the left ventricle via the mitral valve and connected to a pressure transducer. The hearts were immersed in warmed perfusion buffer to maintain the hearts at 37°C, and the balloons were inflated to achieve constant end-diastolic pressures of 5 to 10 mm Hg.
# The hearts were perfused for 20 min to achieve stabilization and then paced at 420 beats/min for baseline functional measurements. Global ischemia was achieved by closing an in-line stopcock to stop perfusion for 20 min followed by 45 min of reperfusion by re-opening the stopcock. To examine the effect of the ligands and dendrimer conjugates on functional recovery, the hearts were perfused with buffer containing the indicated concentrations of compounds for 10 min immediately before ischemia.
# All data are reported as means ± S.E.M. Functional recovery data in the isolated heart studies were analyzed by two-way repeated measures ANOVA. […] Left ventricular functional recoveries at 45 min of reperfusion were compared using one-way analysis of variance followed by Student's t test with the Bonferroni correction or an unpaired Student's t test, as appropriate. P < 0.05 was statistically significant.
# hA3AR = conditions: ref [13],[14]; cited from earlier work
# hA2AAR = target: hA2AAR; parameters: method as in PMID 19499950, PMID 20036562; conditions: ref [13],[14]; cited from earlier work
# hA1AR = test system: hA1AR; parameters: method as in PMID 19499950, PMID 20036562; conditions: at 10 μM; ref [13],[14]; cited from earlier work
compound,measurement,setting,value
CNC(=O)[C@@]12C[C@@H]1[C@@H](n1cnc3c(NCc4cccc(Cl)c4)nc(C#CCCCCc4cn(CCNC(C)=O)nn4)nc31)[C@H](O)[C@@H]2O [MRS5233],Ki,"mA3AR [1]; [125I]I-AB-MECA, recombinant mAR on HEK293 cell membranes, Kiapp for the dendrimer conjugate, read-out: mA3AR, Ki or Kiapp",3.94 ± 0.31 nM
same,fold greater affinity at mA3AR than at hA3AR,mA3AR [1]; mouse Ki vs reported human Ki,5.7 fold
same,Selectivity (A1 /A3),"mA3AR [1]; mouse receptors, ratio of binding Ki",169-fold
same,Ki,mA1AR [2],665 ± 70 nM
same,agonist efficacy in cAMP assay,mA3AR [3]; HEK293 cells overexpressing recombinant mARs,full agonists
same,IC50,"mA3AR [3]; HEK293 cells, forskolin-stimulated",4 nM
same,EC50,"mA3AR [3]; HEK293 cells, forskolin-stimulated, as printed in Figure 3, read-out: EC50, cAMP functional assay, mouse A3AR",4 ± 0.3 nM
same,activity at the mA1AR in cAMP assay,mA1AR [4]; at 100 μM,inactive
same,inhibition of cAMP production at the A1AR,mA1AR [4]; up to 0.1 mM,lacked inhibition
same,recovery of LVDP throughout reperfusion vs control,isolated mouse hearts; 1 nM,did not; also recorded: trend in improving LVDP over control
same,recovery of rates of relaxation and contraction at 45 min reperfusion vs control,isolated mouse hearts; 1 nM,significantly better
same,recovery of LVDP throughout reperfusion vs control,isolated mouse hearts; 10 nM,significant improvement
same,recovery of rates of relaxation and contraction at 45 min reperfusion vs control,isolated mouse hearts; 10 nM,significantly better
same,functional recovery after 20 min ischemia/45 min reperfusion compared to control,"isolated mouse hearts; 1 and 10 nM (MRS5246 in Figure 6 also 0.1 nM), infused 10 min before ischemia",improved functional recovery compared to control in a concentration-dependent manner; also recorded: effective at increasing functional recovery; also recorded: significant protection starting at one nanomolar
same,Ki,hA3AR,22.3 ± 1.6 nM
same,Ki,hA2AAR,2440 ± 320 nM
same,inhibition of radioligand binding at hA1AR,hA1AR,12 ± 4%
